Data published in publication PMC2009384, “The carcinogenicity of polycyclic hydrocarbon epoxides in newborn mice” (British Journal of Cancer, 1975).

Test system: newborn Swiss mice
Assay: Experiment I: carcinogenicity in newborn mice, benz(a)anthracene vs its K region epoxide (s.c. injection, tumour incidence to 70-75 weeks)
Text: Br. J. Cancer (1975) 31, 182 THE CARCINOGENICITY OF POLYCYCLIC HYDROCARBON EPOXIDES IN NEWBORN MICE P. L. GROVER, P. SIMS, B. C. V. MITCHLEY AND F. J. C. ROE From the Chester Beatty Research Institute, Institute of Cancer Research, Royal Cancer Hospital, Fulham Road, London, SW3 6JB Received 9 August 1974. […] THE HYPOTHESIS that the carcino- genicity of polycyclic hydrocarbons is associated with the formation of epoxide metabolites (Grover, Hewer and Sims, 1971, 1972; Keysell et al., 1973) is sup- ported by some experimental evidence but remains unproven. […] The epoxides can also act as alkylating agents (Grover and Sims, 1970) and as mutagens (Ames, Sims and Grover, 1972; Huberman et al., 1971; Cookson, Sims and Grover, 1971; Fahmy and Fahmy, 1973). […] The newborn mouse, which is susceptible to carcinogenic polycyclic hydrocarbons (Roe, Rowson and Salaman, 1961; Roe, Mitchley and Walters, 1963; Walters and Roe, 1964, 1966) can be considered as a convenient source of several types of rapidly dividing cells. Consequently we have tested the K region epoxides derived from phenanthrene, benz(a)anthracene, 7-methylbenz(a)anthracene, dibenz(a,h)- anthracene, chrysene and 3-methylchol- anthrene, together with some of the CARCINOGENICITY OF POLYCYCLIC HYDROCARBON EPOXIDES IN MICE 183 parent hydrocarbons, for carcinogenicity using newborn mice. This paper presents the results that were obtained in these experiments. MATERIALS AND METHODS The polycyclic hydrocarbon epoxides, phenanthrene 9,10-oxide, benz(a)anthracene 5,6-oxide, 7-methylbenz(a)anthracene 5,6- oxide, dibenz(a,h)anthracene 5,6-oxide, chry- sene 5,6-oxide and 3-methylcholanthrene 11,12-oxide were prepared from the parent hydrocarbons (Newman and Blum, 1964; Boyland and Sims, 1965; Sims 1966). Two experiments were undertaken fol- lowing similar protocols. For each experi- ment Swiss mice from a specific pathogen- free colony were time mated so as to produce a large number of litters over the course of 2 or 3 days. […] Test compounds were suspended in poly- ethylene glycol (PEG) 400 and injections of 0-02 ml of the suspension were given by introducing a 25 gauge hypodermic needle through the skin near the root of the tail and threading it subcutaneously to deliver the injected material in the interscapular region. Injections were given to every mouse on the first day or first 3 days of life. The details of treatments and numbers of mice of each sex in each group are shown in Table I (Experiment I) and Table II (Ex- periment II). Surviving mice were weaned when they w ere 21 days old. Thereafter, males and females w ere separated and housed 6 per cage in metal boxes. A mixture of sawdust and wood shavings was used as bedding. The mice were fed on a standard cubed diet (Formulation 86 from C. Holdman and Sons (Plow co Feeds), Byers Lane, South Godstone, Surrey) and water was given ad libitum. Mice were inspected daily, and at weekly intervals they were weighed and palpated for tumours and other lesions. […] The experiment was terminated when surviving mice were between 70 and 75 weeks old. A full routine post- mortem examination, which included disten- sion of the urinary bladder with fixative, was carried out. The number of lesions thought to be neoplasms and the size of the largest such lesion in each organ affected were recorded. All tissues with suspected neoplasms were fixed in Bouin's solution. Haematoxylin and eosin stained 5 µm paraffin wax sections were prepared and examined microscopically. RESULTS The results of the two experiments in terms of tumour incidence are sum- marized in […].

[1] = females, 50 µg per treatment s.c. on Days 0, 1 and 2
[2] = females, 50 µg per treatment s.c. on Days 0, 1 and 2 in PEG 400
[3] = females, 100 µg per treatment s.c. on Days 0, 1 and 2
[4] = females, 100 µg per treatment s.c. on Days 0, 1 and 2 in PEG 400
[5] = females, 200 µg per treatment s.c. on Days 0, 1 and 2
[6] = females, 200 µg per treatment s.c. on Days 0, 1 and 2 in PEG 400
[7] = males, 50 µg per treatment s.c. on Days 0, 1 and 2
[8] = males, 50 µg per treatment s.c. on Days 0, 1 and 2 in PEG 400
[9] = males, 100 µg per treatment s.c. on Days 0, 1 and 2
[10] = males, 100 µg per treatment s.c. on Days 0, 1 and 2 in PEG 400
[11] = males, 200 µg per treatment s.c. on Days 0, 1 and 2
[12] = males, 200 µg per treatment s.c. on Days 0, 1 and 2 in PEG 400

Compound: c1ccc2c(c1)-c1cc3ccccc3cc1[C@H]1O[C@@H]21 [Benz(a)anthracene 5,6-oxide, benz(a)anthracene 5,6-oxide]
- incidence of liver tumours in males (2 higher levels (Groups D and E, 3 x 200 and 3 x 100 µg)): increase in incidence
- No. of mice examined at p.m. at termination of experiment (70th-75th week) with liver tumours [1]: 0
- No. of mice examined at p.m. at termination of experiment (70th-75th week) with lung tumours [1]: 2
- No. of mice examined at p.m. at termination of experiment (70th-75th week) with multiple liver tumours [1]: 0
- No. of mice examined at p.m. at termination of experiment (70th-75th week) with multiple lung tumours [1]: 0
- No. of mice examined at p.m. at termination of experiment (70th-75th week) with other tumours [1]: 2
- No. of mice examined at p.m. from 50th-70th week with liver tumours [1]: 0
- No. of mice examined at p.m. from 50th-70th week with lung tumours [1]: 0
- No. of mice examined at p.m. from 50th-70th week with other tumours [1]: 1
- No. of survivors at 50 weeks [2]: 18
- No. of survivors at 70 weeks [2]: 16
- No. of mice examined at p.m. at termination of experiment (70th-75th week) with liver tumours [3]: 0
- No. of mice examined at p.m. at termination of experiment (70th-75th week) with lung tumours [3]: 6
- No. of mice examined at p.m. at termination of experiment (70th-75th week) with multiple liver tumours [3]: 0
- No. of mice examined at p.m. at termination of experiment (70th-75th week) with multiple lung tumours [3]: 5
- No. of mice examined at p.m. at termination of experiment (70th-75th week) with other tumours [3]: 1
- No. of mice examined at p.m. from 50th-70th week with liver tumours [3]: 0
- No. of mice examined at p.m. from 50th-70th week with lung tumours [3]: 0
- No. of mice examined at p.m. from 50th-70th week with other tumours [3]: 0
- No. of survivors at 50 weeks [4]: 24
- No. of survivors at 70 weeks [4]: 22
- No. of mice examined at p.m. at termination of experiment (70th-75th week) with liver tumours [5]: 2
- No. of mice examined at p.m. at termination of experiment (70th-75th week) with lung tumours [5]: 1
- No. of mice examined at p.m. at termination of experiment (70th-75th week) with multiple liver tumours [5]: 0
- No. of mice examined at p.m. at termination of experiment (70th-75th week) with multiple lung tumours [5]: 0
- No. of mice examined at p.m. at termination of experiment (70th-75th week) with other tumours [5]: 0
- No. of mice examined at p.m. from 50th-70th week with liver tumours [5]: 0
- No. of mice examined at p.m. from 50th-70th week with lung tumours [5]: 0
- No. of mice examined at p.m. from 50th-70th week with other tumours [5]: 0
- No. of survivors at 50 weeks [6]: 21
- No. of survivors at 70 weeks [6]: 20
- incidence of the 2 kinds of tumour (liver, lung) compared with vehicle group (lowest level of dosage, Group F, 3 x 50 µg): not very different from that in Group G
- No. of mice examined at p.m. at termination of experiment (70th-75th week) with liver tumours [7]: 4
- No. of mice examined at p.m. at termination of experiment (70th-75th week) with lung tumours [7]: 5
- No. of mice examined at p.m. at termination of experiment (70th-75th week) with multiple liver tumours [7]: 1
- No. of mice examined at p.m. at termination of experiment (70th-75th week) with multiple lung tumours [7]: 1
- No. of mice examined at p.m. at termination of experiment (70th-75th week) with other tumours [7]: 0
- No. of mice examined at p.m. from 50th-70th week with liver tumours [7]: 0
- No. of mice examined at p.m. from 50th-70th week with lung tumours [7]: 0
- No. of mice examined at p.m. from 50th-70th week with other tumours [7]: 0
- No. of survivors at 50 weeks [8]: 16
- No. of survivors at 70 weeks [8]: 16
- No. of mice examined at p.m. at termination of experiment (70th-75th week) with liver tumours [9]: 12
- No. of mice examined at p.m. at termination of experiment (70th-75th week) with lung tumours [9]: 3
- No. of mice examined at p.m. at termination of experiment (70th-75th week) with multiple liver tumours [9]: 8
- No. of mice examined at p.m. at termination of experiment (70th-75th week) with multiple lung tumours [9]: 0
- No. of mice examined at p.m. at termination of experiment (70th-75th week) with other tumours [9]: 0
- No. of mice examined at p.m. from 50th-70th week with liver tumours [9]: 0
- No. of mice examined at p.m. from 50th-70th week with lung tumours [9]: 1
- No. of mice examined at p.m. from 50th-70th week with other tumours [9]: 0
- No. of survivors at 50 weeks [10]: 27
- No. of survivors at 70 weeks [10]: 26
- No. of mice examined at p.m. at termination of experiment (70th-75th week) with liver tumours [11]: 5
- No. of mice examined at p.m. at termination of experiment (70th-75th week) with lung tumours [11]: 2
- No. of mice examined at p.m. at termination of experiment (70th-75th week) with multiple liver tumours [11]: 4
- No. of mice examined at p.m. at termination of experiment (70th-75th week) with multiple lung tumours [11]: 1
- No. of mice examined at p.m. at termination of experiment (70th-75th week) with other tumours [11]: 2
- No. of mice examined at p.m. from 50th-70th week with liver tumours [11]: 2
- No. of mice examined at p.m. from 50th-70th week with lung tumours [11]: 0
- No. of mice examined at p.m. from 50th-70th week with other tumours [11]: 0
- No. of survivors at 50 weeks [12]: 21
- No. of survivors at 70 weeks [12]: 18
- activity in increasing liver and lung tumour incidence compared with parent compound (parenteral administration during early neonatal life): less active than its parent compound
